Test results taken from the supplement of paper PMC10307832.

Tests used:
Assay in all cases: relative viability (nuclei count vs DMSO), 5 days (fraction); higher = more cells survive
NCI-H441 = system: NCI-H441
Outline: (§1)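 Medians of duplicate plates are given as relative viability. That measure is the nuclei count in treated wells divided by the count in vehicle wells. Counts were taken on 4× images of lung cancer cell lines in 1536-well plates, 5 days after pin-tool dosing the day after seeding with one drug alone or a fixed anchor-drug dose plus five library-drug doses (not always all listed) in √10 steps.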

NCI-H838 = system: NCI-H838
Outline: as §1

NCI-H3122 = system: NCI-H3122
Outline: as §1

COR-L23 = system: COR-L23
Outline: as §1

NCI-H2170 = system: NCI-H2170
Outline: as §1

LU99A = system: LU99A
Outline: as §1

HARA = system: HARA
Outline: as §1

COR-L 105 = system: COR-L 105
Outline: as §1

NCI-H661 = system: NCI-H661
Outline: as §1

LK-2 = system: LK-2
Outline: as §1

NCI-H1650 = system: NCI-H1650
Outline: as §1

BEN = system: BEN
Outline: as §1

NCI-H727 = system: NCI-H727
Outline: as §1

NCI-H2009 = system: NCI-H2009
Outline: as §1

ABC-1 = system: ABC-1
Outline: as §1

NCI-H1437 = system: NCI-H1437
Outline: as §1

SW 900 = system: SW 900
Outline: as §1

HCC-366 = system: HCC-366
Outline: as §1

PC-14 = system: PC-14
Outline: as §1

NCI-H1666 = system: NCI-H1666
Outline: as §1

201T = system: 201T
Outline: as §1

EKVX = system: EKVX
Outline: as §1

Question: What does the source list for `NC(=O)Nc1cc(-c2cccc(F)c2)sc1C(=O)N[C@H]1CCCNC1` [AZD7762] + Nc1ncn([C@H]2C[C@H](O)[C@@H](CO)O2)c(=O)n1 [Decitabine] (partner 2 µM)?
Answer: relative viability (NCI-H441; first compound 0.01 µM): 0.274; relative viability (NCI-H441; first compound 0.03162 µM): 0.29; relative viability (NCI-H441; first compound 0.1 µM): 0.328; relative viability (NCI-H441; first compound 0.3162 µM): 0.344; relative viability (NCI-H441; first compound 1 µM): 0.27; relative viability (NCI-H838; first compound 0.01 µM): 0.661; relative viability (NCI-H838; first compound 0.03162 µM): 0.568; relative viability (NCI-H838; first compound 0.1 µM): 0.531; relative viability (NCI-H838; first compound 0.3162 µM): 0.454; relative viability (NCI-H838; first compound 1 µM): 0.283; relative viability (NCI-H3122; first compound 0.01 µM): 0.451; relative viability (NCI-H3122; first compound 0.03162 µM): 0.427; relative viability (NCI-H3122; first compound 0.1 µM): 0.442; relative viability (NCI-H3122; first compound 0.3162 µM): 0.415; relative viability (NCI-H3122; first compound 1 µM): 0.434; relative viability (COR-L23; first compound 0.01 µM): 0.485; relative viability (COR-L23; first compound 0.03162 µM): 0.535; relative viability (COR-L23; first compound 0.1 µM): 0.563; relative viability (COR-L23; first compound 0.3162 µM): 0.35; relative viability (COR-L23; first compound 1 µM): 0.166; relative viability (NCI-H2170; first compound 0.01 µM): 0.465; relative viability (NCI-H2170; first compound 0.03162 µM): 0.544; relative viability (NCI-H2170; first compound 0.1 µM): 0.497; relative viability (NCI-H2170; first compound 0.3162 µM): 0.581; relative viability (NCI-H2170; first compound 1 µM): 0.436; relative viability (LU99A; first compound 0.01 µM): 0.863; relative viability (LU99A; first compound 0.03162 µM): 0.911; relative viability (LU99A; first compound 0.1 µM): 0.941; relative viability (LU99A; first compound 0.3162 µM): 0.958; relative viability (LU99A; first compound 1 µM): 0.635; relative viability (HARA; first compound 0.01 µM): 0.633; relative viability (HARA; first compound 0.03162 µM): 0.507; relative viability (HARA; first compound 0.1 µM): 0.66; relative viability (HARA; first compound 0.3162 µM): 0.539; relative viability (HARA; first compound 1 µM): 0.211; relative viability (COR-L 105; first compound 0.01 µM): 0.711; relative viability (COR-L 105; first compound 0.03162 µM): 0.664; relative viability (COR-L 105; first compound 0.1 µM): 0.643; relative viability (COR-L 105; first compound 0.3162 µM): 0.55; relative viability (COR-L 105; first compound 1 µM): 0.508; relative viability (NCI-H661; first compound 0.01 µM): 0.689; relative viability (NCI-H661; first compound 0.03162 µM): 0.62; relative viability (NCI-H661; first compound 0.1 µM): 0.642; relative viability (NCI-H661; first compound 0.3162 µM): 0.609; relative viability (NCI-H661; first compound 1 µM): 0.356; relative viability (LK-2; first compound 0.01 µM): 0.476; relative viability (LK-2; first compound 0.03162 µM): 0.479; relative viability (LK-2; first compound 0.1 µM): 0.346; relative viability (LK-2; first compound 0.3162 µM): 0.346; relative viability (LK-2; first compound 1 µM): 0.25; relative viability (NCI-H1650; first compound 0.01 µM): 0.606; relative viability (NCI-H1650; first compound 0.03162 µM): 0.593; relative viability (NCI-H1650; first compound 0.1 µM): 0.62; relative viability (NCI-H1650; first compound 0.3162 µM): 0.477; relative viability (NCI-H1650; first compound 1 µM): 0.284; relative viability (BEN; first compound 0.01 µM): 0.801; relative viability (BEN; first compound 0.03162 µM): 0.984; relative viability (BEN; first compound 0.1 µM): 0.874; relative viability (BEN; first compound 0.3162 µM): 0.872; relative viability (BEN; first compound 1 µM): 0.673; relative viability (NCI-H727; first compound 0.01 µM): 1.01; relative viability (NCI-H727; first compound 0.03162 µM): 1.11; relative viability (NCI-H727; first compound 0.1 µM): 0.895; relative viability (NCI-H727; first compound 0.3162 µM): 0.959; relative viability (NCI-H727; first compound 1 µM): 0.536; relative viability (NCI-H2009; first compound 0.01 µM): 0.468; relative viability (NCI-H2009; first compound 0.03162 µM): 0.417; relative viability (NCI-H2009; first compound 0.1 µM): 0.373; relative viability (NCI-H2009; first compound 0.3162 µM): 0.378; relative viability (NCI-H2009; first compound 1 µM): 0.3; relative viability (ABC-1; first compound 0.01 µM): 1.07; relative viability (ABC-1; first compound 0.03162 µM): 1.11; relative viability (ABC-1; first compound 0.1 µM): 0.989; relative viability (ABC-1; first compound 0.3162 µM): 0.909; relative viability (ABC-1; first compound 1 µM): 0.617; relative viability (NCI-H1437; first compound 0.01 µM): 0.638; relative viability (NCI-H1437; first compound 0.03162 µM): 0.622; relative viability (NCI-H1437; first compound 0.1 µM): 0.721; relative viability (NCI-H1437; first compound 0.3162 µM): 0.656; relative viability (NCI-H1437; first compound 1 µM): 0.57; relative viability (SW 900; first compound 0.01 µM): 0.402; relative viability (SW 900; first compound 0.03162 µM): 0.477; relative viability (SW 900; first compound 0.1 µM): 0.551; relative viability (SW 900; first compound 0.3162 µM): 0.481; relative viability (SW 900; first compound 1 µM): 0.451; relative viability (HCC-366; first compound 0.01 µM): 0.332; relative viability (HCC-366; first compound 0.03162 µM): 0.407; relative viability (HCC-366; first compound 0.1 µM): 0.337; relative viability (HCC-366; first compound 0.3162 µM): 0.309; relative viability (HCC-366; first compound 1 µM): 0.154; relative viability (PC-14; first compound 0.01 µM): 0.234; relative viability (PC-14; first compound 0.03162 µM): 0.225; relative viability (PC-14; first compound 0.1 µM): 0.166; relative viability (PC-14; first compound 0.3162 µM): 0.137; relative viability (PC-14; first compound 1 µM): 0.0898; relative viability (NCI-H1666; first compound 0.01 µM): 0.731; relative viability (NCI-H1666; first compound 0.03162 µM): 0.907; relative viability (NCI-H1666; first compound 0.1 µM): 0.924; relative viability (NCI-H1666; first compound 0.3162 µM): 0.824; relative viability (NCI-H1666; first compound 1 µM): 0.71; relative viability (201T; first compound 0.01 µM): 0.831; relative viability (201T; first compound 0.03162 µM): 0.872; relative viability (201T; first compound 0.1 µM): 0.903; relative viability (201T; first compound 0.3162 µM): 0.909; relative viability (201T; first compound 1 µM): 0.938; relative viability (EKVX; first compound 0.01 µM): 0.456; relative viability (EKVX; first compound 0.03162 µM): 0.388; relative viability (EKVX; first compound 0.1 µM): 0.326; relative viability (EKVX; first compound 0.3162 µM): 0.395; relative viability (EKVX; first compound 1 µM): 0.37
